Data as given in patent publication US20220008414A1, “PHARMACEUTICAL COMPOSITION COMPRISING HISTONE DEACETYLASE 6 INHIBITORS” (Chong Kun Dang Pharmaceutical Corp., priority 2018, published 2022).

Columns and labels:
[1] = biological target: T1, HDAC-6 (Homo sapiens, UniProt Q9UBN7); experiment: HDAC6 enzyme activity inhibition (HDAC Fluorimetric Drug Discovery Kit); format: biochemical; parameters: purchased Calbiochem Inc. 382180; conditions: HDAC6 over HDAC1
T1 sequence (Q9UBN7 1-1215): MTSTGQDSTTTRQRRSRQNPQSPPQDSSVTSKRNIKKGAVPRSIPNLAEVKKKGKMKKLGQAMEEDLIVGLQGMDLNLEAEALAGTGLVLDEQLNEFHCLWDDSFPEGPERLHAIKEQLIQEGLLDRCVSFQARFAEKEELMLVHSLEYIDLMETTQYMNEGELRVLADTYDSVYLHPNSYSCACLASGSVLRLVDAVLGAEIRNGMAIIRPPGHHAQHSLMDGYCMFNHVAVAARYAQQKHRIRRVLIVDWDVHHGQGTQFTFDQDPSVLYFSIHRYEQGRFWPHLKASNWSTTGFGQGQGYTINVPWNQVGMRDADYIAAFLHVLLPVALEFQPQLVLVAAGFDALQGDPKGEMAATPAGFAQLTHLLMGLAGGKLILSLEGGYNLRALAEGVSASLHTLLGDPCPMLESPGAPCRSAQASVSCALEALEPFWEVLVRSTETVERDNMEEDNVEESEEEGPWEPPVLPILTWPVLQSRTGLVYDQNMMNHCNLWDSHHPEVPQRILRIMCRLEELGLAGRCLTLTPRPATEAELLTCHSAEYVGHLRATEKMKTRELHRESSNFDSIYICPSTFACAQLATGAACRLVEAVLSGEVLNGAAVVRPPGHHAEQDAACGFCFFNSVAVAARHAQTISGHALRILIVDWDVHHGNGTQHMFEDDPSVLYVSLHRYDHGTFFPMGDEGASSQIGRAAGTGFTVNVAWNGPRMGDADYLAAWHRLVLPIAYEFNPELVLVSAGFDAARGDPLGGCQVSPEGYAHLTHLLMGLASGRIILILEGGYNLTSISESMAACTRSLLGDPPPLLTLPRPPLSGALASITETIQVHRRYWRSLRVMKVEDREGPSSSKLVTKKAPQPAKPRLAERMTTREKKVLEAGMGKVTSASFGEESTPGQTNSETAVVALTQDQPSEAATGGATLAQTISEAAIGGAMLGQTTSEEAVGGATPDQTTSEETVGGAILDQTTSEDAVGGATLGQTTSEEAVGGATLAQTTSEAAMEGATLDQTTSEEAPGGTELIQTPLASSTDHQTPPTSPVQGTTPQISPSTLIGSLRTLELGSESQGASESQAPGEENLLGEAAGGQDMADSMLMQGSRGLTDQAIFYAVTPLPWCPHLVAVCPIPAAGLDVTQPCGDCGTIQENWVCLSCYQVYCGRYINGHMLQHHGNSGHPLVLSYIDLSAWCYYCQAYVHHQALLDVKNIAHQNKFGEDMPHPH
Experimental: A comparative experiment was conducted with an existing developed material as a control group in order to identify the selectivity of the compound represented by Formula I of the present invention to HDAC6 through an experiment on HDAC1 and HDAC6 enzyme activity inhibition.
The HDAC enzyme activity was measured with HDAC Fluorimetric Drug Discovery Kit (BML-[1424] AK511, 516) of Enzo Life Science, Inc. For the test on the HDAC1 enzyme activity, human recombinant HDAC1 (BML-SE456) was used as an enzyme source and Fluor de Lys®-“SIRT1 (BNL-KI177)” was used as a substrate. A 5-fold dilution of the compound was divided into a 96-well plate, after which 0.3 μg of the enzyme and 10 μM of the substrate were inserted into each well and subjected to reaction at 30° C. for 60 minutes, such that Fluor de Lys® Developer II (BMLKI176) was inserted thereinto and subjected to reaction for 30 minutes and finished. After that, a fluorescence value (Ex 360, Em 460) was measured with a multi-plate reader (Flexstation 3, Molecular Device). An experiment on HDAC6 enzyme was conducted in accordance with the same protocol as an HDAC1 enzyme activity test method by using human recombinant HDAC6 (382180) of Calbiochem Inc. Each IC50 value was calculated with GraphPad Prism 4.0 program, and final result values were described in the following table 2.

[2] = system: hippocampal neurons from a Sprague-Dawley (SD) rat fetus; experiment: Effect on axonal transport velocity of mitochondria (in vitro); format: cell-based; conditions: amyloid-beta treated neurons, vehicle set at 100%, amyloid-beta group at 0%
Experimental: To that end, on the 17th to 18th days (E17-18) of insemination, the hippocampal neurons from a Sprague-Dawley (SD) rat fetus were cultured for seven days in a culture container for imaging, which had been coated with extracellular matrix, and were treated with amyloid-beta protein fragments at a concentration of […]. In 24 hours later, such neurons were treated with the compound on the 8th day of in vitro culture. In three hours later, they were treated with MitoTracker Red CMXRos (Life Tech-nologies, NY, USA) for last five minutes to stain mitochondria. An image on the axonal transport of stained neuron mitochondria was taken with a confocal microscope (Leica SP8; Leica microsystems, UK) at an interval of one second for one minute to measure a transport velocity of each mitochondria per second with an IMARIS analysis program (BITPLANE, Zurich, Switzerland), and to set a section, in which the group treated with amyloid-beta had shown a significant decrease in the transport velocity of mitochondria compared to a vehicle. After that, the results of normalization with the vehicle set at 100% and with the group treated with amyloid-beta set at 0% were described in the following table 1.

[3] = system: other HDAC isotypes; experiment: HDAC isotype enzyme assay (Reaction biology Corp.), remaining isotypes; format: biochemical; conditions: isotypes other than HDAC6 and HDAC8 (ND in table 3)
[4] = system: CMT1A mice (C22); experiment: Histopathological analysis of sciatic nerves; format: in vivo
Experimental: (§1) Particularly, the compound 84 was repeatedly administered into the 2.5-week-old CMT1A mice (C22) at 10, 25 and 100 mg/kg twice a day for two weeks. Behavioral evaluation and electrophysiological analysis were performed on the last day, immediately after which the animals were sacrificed to carry out histopathological analysis and evaluation.
A histopathological analysis was performed as follows. In 0.5 hours after the last administration of the compound 84, the mice were euthanized through cervical dis-location, after which their sciatic nerves were collected therefrom. For a histopathological examination, the collected sciatic nerves were fixed into 2.5% glu-taraldehyde solution. The fixed tissues were prepared into a plastic-embedded block through a tissue treatment process, then micro-sectioned in the semithin thickness of 500 nm to prepare sciatic nerve tissue fragments, and then stained with toluidine blue.
The stained nerve tissues were photographed at 400× magnification with an optical microscope. In a photographed entire area, the inner axon diameters of total myelinated fibers and total unmyelinated fibers were measured with an image J program. The results thereof were analyzed by using the numbers of total myelinated fibers and total unmyelinated fibers as well as a size distribution chart on the diameters of respective nerve fibers.

[5] = system: CMT1A mice (C22); experiment: Rotarod test; format: in vivo; conditions: 10, 25 and 100 mg/kg twice a day orally for two weeks, 2.5-week-old C22 mice, vs control group (DW C22)
Experimental: as §1
(§2) Rotarod, balance beam and grip strength tests were conducted once a day for two days. Thereafter, the animals were distributed by the Z-array method based on the results of rotarod, grip strength, and body weight. C22 mice were divided into four groups consisting of DW treated group and three compound 84 treated groups (10, 25, 100 mg/kg) with 10 mice per group. The test articles were repeatedly administered twice a day orally, and the behavioral test was performed 30 min after administration of the test articles.
The Rotarod test (ROTA ROD, LE8205, Panlab) was performed to evaluate a motor coordination function/motor function. For three days before the test, all the test animals were placed on a road at 8 rpm and subjected to adaptive training five times a day. The animals, whose time of falling from the rod reached 150-180 seconds, were used in the test (including about 80% of all the animals). In both group separation and the present experiment, time at which animals fell from the rod was measured at a fixed speed of 8 rpm for three minutes. […]

[6] = biological target: T1, HDAC-6; experiment: HDAC isotype enzyme assay (Reaction biology Corp.); format: biochemical; parameters: Reaction biology Corp. (contract laboratory); conditions: substrate RHK-K(Ac)-AMC
Description: The experiment was requested at Reaction biology Corp. (Malvern, Pa., USA) and performed according to a test method established within the organization.

[7] = system: CMT1A mice (C22); experiment: Grip strength test; format: in vivo; conditions: 10, 25 and 100 mg/kg twice a day orally for two weeks, 2.5-week-old C22 mice, vs control group (DW C22)
Experimental: as §1, §2
In an actual clinical test, a degree of muscle atrophy is evaluated with an ankle dorsiflexion examination and a grip test. GST (GRIP […] TEST, BIO-GS3, BIOSEB) is mainly used in an animal experiment. For the GST, strength of four feet was evaluated with grid. All the experiments were performed by one person. […] Out of the values consecutively measured five times, the maximum value was calibrated with a weight, and then used as evaluation results. […]

[8] = system: CMT1A mice (C22); experiment: Nerve conduction study (NCS); format: in vivo; conditions: 10, 25 and 100 mg/kg twice a day for two weeks, 2.5-week-old C22 mice, vs control group (DW C22)
Experimental: as §1
The evaluation of the nerve conduction study (NSC) was as follows. A supramaximal stimulus was applied to proximal peripheral nerves, after which the compound muscle action potentials (CMAP) produced from distal muscles controlled by the nerves were recorded to measure a latent period, amplitude, nerve conduction velocity (NCV), duration, shape, area and the like, which were then compared with normal values and thus evaluated. For the nerve conduction study (NSC), an electrical stimulus was given to the sciatic nerves of the mice anesthetized with isoflurane, after which the electrical stimulus given to sural nerves was measured with VikingQuest (Natus Medical Inc.).

[9] = biological target: T2, HDAC-8 (Homo sapiens, UniProt Q9BY41); experiment: HDAC isotype enzyme assay (Reaction biology Corp.); format: biochemical; conditions: substrate RHK-K(Ac)-AMC
T2 construct: Reaction biology Corp. (contract laboratory)
T2 sequence (Q9BY41 1-377): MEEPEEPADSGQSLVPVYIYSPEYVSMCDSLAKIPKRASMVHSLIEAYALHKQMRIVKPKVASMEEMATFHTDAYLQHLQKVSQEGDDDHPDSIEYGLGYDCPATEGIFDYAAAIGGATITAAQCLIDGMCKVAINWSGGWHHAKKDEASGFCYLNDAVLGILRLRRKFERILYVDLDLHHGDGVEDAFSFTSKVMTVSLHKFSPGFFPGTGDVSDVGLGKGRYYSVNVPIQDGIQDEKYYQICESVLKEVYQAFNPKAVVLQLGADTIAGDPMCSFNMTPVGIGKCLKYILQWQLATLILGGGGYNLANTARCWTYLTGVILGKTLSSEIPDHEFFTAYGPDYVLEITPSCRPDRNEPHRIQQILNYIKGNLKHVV

Structure (SMILES)	HDAC6 selectivity (fold) [1]	Velocity distribution (%) ([2]; 1 uM)	Velocity distribution (%) ([2]; 3 uM)	Velocity distribution (%) ([2]; 15 uM)	Velocity distribution (%) ([2]; 0.5 uM)	Inhibition of other HDAC isotypes [3]	Size of diameters of myelinated nerves ([4]; sciatic nerve, vs control group (C22-Veh))	Ratio of myelinated nerves and unmyelinated nerves ([4]; sciatic nerve, vs control group of mice)	Morphological changes (loss of myelinated nerve fibers, axonal atrophy and schwann cell hyperplasia) ([4]; toluidine blue, 10, 25 or 100 mg/kg for two weeks, vs control group of mice)	Time of latency to fall [5]	IC50 [6]	Grip strength [7]	Compound muscle action potentials (CMAP) [8]	Motor nerve conduction velocity (MNCV) [8]	IC50 [9]
CC(C)CCN1CCN(Cc2cccc(CN3[C@H](C)CN(Cc4ccc(C(=O)NO)cc4)C[C@@H]3C)c2)CC1 [Compound 454, N-hydroxy-4-(((3R,5S)-4-(3-((4-isopentylpiperazin-1-yl)methyl)benzyl)-3,5-dimethylpiperazin-1-yl)methyl)benzamide]	>237 fold	* (0%~50%)	* (0%~50%)	** (50%~100%)											
C[C@@H]1CN(Cc2ccc(C(=O)NO)cc2)C[C@H](C)N1Cc1cccc(CN2CCCCC2)c1 [Compound 382, 4-(((3R,5S)-3,5-dimethyl-4-(3-(piperidin-1-ylmethyl)benzyl)piperazin-1-yl)methyl)-N-hydroxybenzamide]	>120 fold														
C[C@@H]1CN(Cc2ccc(C(=O)NO)cc2)C[C@H](C)N1Cc1ccccc1 [Compound 84, 4-(((3R,5S)-4-benzyl-3,5-dimethylpiperazin-1-yl)methyl)-N-hydroxybenzamide]	517 fold			*** (>100%)	* (0%~50%)	not inhibited at all	increase	significant increase	significant improvement	increased in a dose-dependent manner	72.2 nM	increased in a dose-dependent manner	increased in a dose-dependent way	increased in a dose-dependent way	5170 nM
